According to publication PMC11887451, “Leveraging Immunogenic Cell Death to Enhance the Immune Response against Malignant Pleural Mesothelioma Tumors” (Journal of the American Chemical Society, 2025):

Test system: calreticulin (CRT) in AB12 cells
Assay: CRT detection, flow cytometry
Type: cell-based, mouse
Conditions: AB12, 5 × IC50 (72 h), 120 min
Description: page 23: concentrations for 100 min at 37 °C. After the treatment, the supernatant was collected in 2 mL microtubes, centrifuged (300 × g, 5 min) and the media was removed. The adherent cells were then trypsinized with 500 μL of trypsin at 37 °C for 5 min. Next, 1 mL of medium was added to neutralize trypsin and the resulting cell suspension was combined with the supernatant. The wells were washed with 200 μL of PBS, which was also combined with the supernatant. The combined solutions were centrifuged (300 × g, 5 min), and the resulting pellets were washed with PBS (2 × 1 mL) and resuspended in 200 μL of Annexin V binding buffer. […] Cell death was evaluated by flow cytometry using a CytoFLEX Flow Cytometer equipped with a 488 nm laser and a 638 nm laser (Beckman Coulter, Brea, CA, USA). The cells were excited by the 488 nm laser, and fluorescence emissions were detected at 525/40 nm for FITC (Annexin V) and at 610/20 nm for ECD (PI). […] The percentage of necrosis was determined by calculating the sum of cells in Q1 and Q2. […] Next, cells were incubated with CRT antibody conjugated with AlexaFluor S23 page 24: 488 (62304S, Cell Signaling Technology) at 4 °C overnight, washed twice with PBS, reconstituted in 500 µL of PBS and analyzed by flow cytometry using a CytoFLEX Flow Cytometer equipped with a 488 nm laser and a 638 nm laser (Beckman Coulter, Brea, CA, USA). […]

SMILES: Nc1nc2[nH]cc(CCc3ccc(C(=O)N[C@@H](CCC(=O)O)C(=O)O)cc3)c2c(=O)[nH]1 [Pemetrexed, pemetrexed, reference compound]
- CRT expression (in words): no changes in CRT expression
